Experimental data from patent US11186577B2, “Vasopressin receptor antagonists and products and methods related thereto” (BlackThorn Therapeutics, Inc., priority 2017, dated 2021).

Tests used:
[1] = molecular target: human Arginine Vasopressin Receptor V2 (AVPR2) (Homo sapiens (Human), UniProt P30518); assay: Vasopressin V2 receptor antagonist assay (cAMP TR-FRET, 1321N1 cells); type: cell-based
[2] = MDR1-MDCK effective efflux assay (Transwell, 10 μM, 1 hour), wild-type MDCK cells; type: in vitro ADME; conditions: dog, MDCK, pH 7.4, Papp AB WT
In short: (§1)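 Wild-type and MDR1-MDCK monolayers cultured 3 days were dosed with compound at 10 μM (0.1% DMSO) in HBSS/25 mM HEPES pH 7.4, in both A>B and B>A directions, for 1 h at 37 °C. Samples were quantified by LC-MS/MS to give Papp and efflux ratio. Effective efflux ratio = ER(MDR1-MDCK)/ER(wild-type); Lucifer Yellow checked monolayer integrity.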

[3] = system: wild-type (WT) MDCK cells; assay: as above; type: in vitro ADME; conditions: MDCK
In short: as §1

[4] = system: MDR1 (P-glycoprotein); assay: MDR1-MDCK effective efflux assay (Transwell, 10 μM, 1 hour), MDR1-MDCK cells; type: in vitro ADME; conditions: dog, MDCK-MDR1, pH 7.4, Papp AB MDR1
In short: as §1

[5] = molecular target: human Oxytocin Receptor (hOTR) (Homo sapiens (Human), UniProt P30559); assay: Oxytocin receptor antagonist assay (oxytocin-evoked calcium, FLIPR, CHEM-1-hOTR cells); type: cell-based; conditions: read-out: OT IC50
In short: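 Antagonist mode in CHEM-1-hOTR cells loaded with Calcium-6 dye; compounds (10-point, 1:3 series) preincubated 15 min at 37 °C, then oxytocin added at daily-determined EC80 in HBSS/20 mM HEPES with 0.1% BSA. Fluorescence (ex 470-495, em 515-575 nm) followed 3 min on FLIPR^TETRA; concentration-dependent reduction of oxytocin response measured.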

Chain of human Arginine Vasopressin Receptor V2 (AVPR2) (P30518 whole entry): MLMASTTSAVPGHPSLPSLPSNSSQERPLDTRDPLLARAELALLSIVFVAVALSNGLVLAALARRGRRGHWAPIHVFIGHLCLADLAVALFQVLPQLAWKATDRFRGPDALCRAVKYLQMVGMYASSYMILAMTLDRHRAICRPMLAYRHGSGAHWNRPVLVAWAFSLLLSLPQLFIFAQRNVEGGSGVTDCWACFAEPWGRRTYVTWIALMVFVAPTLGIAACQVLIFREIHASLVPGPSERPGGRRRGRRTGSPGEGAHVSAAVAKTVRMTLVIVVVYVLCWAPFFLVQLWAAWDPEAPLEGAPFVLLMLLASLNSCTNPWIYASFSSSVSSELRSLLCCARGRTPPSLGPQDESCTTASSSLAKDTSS
Chain of human Oxytocin Receptor (hOTR) (P30559 whole entry): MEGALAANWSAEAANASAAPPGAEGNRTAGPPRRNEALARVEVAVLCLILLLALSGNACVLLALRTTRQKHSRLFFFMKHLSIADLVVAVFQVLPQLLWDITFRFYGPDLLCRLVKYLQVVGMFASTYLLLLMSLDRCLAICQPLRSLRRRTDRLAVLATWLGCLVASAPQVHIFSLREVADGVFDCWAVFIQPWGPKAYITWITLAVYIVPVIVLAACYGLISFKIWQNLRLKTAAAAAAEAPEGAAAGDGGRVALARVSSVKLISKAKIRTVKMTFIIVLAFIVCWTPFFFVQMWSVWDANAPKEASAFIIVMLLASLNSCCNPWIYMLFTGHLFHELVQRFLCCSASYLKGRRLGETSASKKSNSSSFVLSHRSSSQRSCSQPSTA

Structure (SMILES)	IC50 [1]	Papp A→B at 1 h, 10 μM [2]	WT ER [3]	Papp A→B at 1 h, 10 μM [4]	IC50 [5]
CCOC(=O)N1Cc2cc(Cl)ccc2-n2c(C3CC4(C3)CN(c3ncc(F)cn3)C4)nnc2C1C (stereo not drawn) [compound 172]	> 1000 nM	> 20 ×10⁻⁶ cm/s	++++	> 20 ×10⁻⁶ cm/s	> 1000 nM
CC1c2nnc(C3CC4(C3)CN(c3cnccn3)C4)n2-c2ccc(Cl)cc2CN1C(=O)C1(F)CC1 (stereo not drawn) [compound 177]	> 1000 nM	> 20 ×10⁻⁶ cm/s	+++	< 7 ×10⁻⁶ cm/s	> 1000 nM
CC1c2nnc(C3CC4(C3)CN(c3ncc(F)cn3)C4)n2-c2ccc(Cl)cc2CN1C(=O)OC(CF)CF (stereo not drawn) [compound 194]	> 1000 nM	10 to 20 ×10⁻⁶ cm/s	++++	10 to 20 ×10⁻⁶ cm/s	> 1000 nM
